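A five-concentration, 48-hour dose response in 96-well plates underlies each endpoint, interpolated linearly between surrounding concentrations. GI50 is the concentration that inhibits growth by half.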 Active and inactive are the calls of the source. No stated cut-off is given here; in the data, active = GI50 up to about 1.1 µM and inactive = higher.
Experiments:
Test in all cases: NCI-60 cell line screen, 48 h
[1] = system: OVCAR-3
[2] = system: A498
[3] = system: MDA-MB-231
[4] = system: CAKI-1
[5] = system: A549
[6] = system: Hs-578T
[7] = system: SF-295
[8] = system: TK-10
[9] = system: EKVX
[10] = system: RPMI-8226
[11] = system: SK-MEL-5
[12] = system: NCI-H23
[13] = system: M14
[14] = system: HCT-15
[15] = system: NCI-H226
[16] = system: MOLT-4
[17] = system: OVCAR-8
[18] = system: UO-31
[19] = system: SK-MEL-28
[20] = system: MDA-MB-435

Row | SMILES | GI50 [1] | GI50 [2] | GI50 [3] | GI50 [4] | GI50 [5] | GI50 [6] | GI50 [7] | GI50 [8] | GI50 [9] | GI50 [10] | GI50 [11] | GI50 [12] | GI50 [13] | GI50 [14] | GI50 [15] | GI50 [16] | GI50 [17] | GI50 [18] | GI50 [19] | GI50 [20]
1 | C[C@H](NC(=O)C(Cc1ccccc1)(Cc1ccc(O)cn1)NC(=O)c1ccccc1)c1ccccc1 (stereo not given in full) | 14.7 µM (inactive) | 18.1 µM (inactive) | 15.6 µM (inactive) | 26.9 µM (inactive) | 14.3 µM (inactive) | 16.7 µM (inactive) | 14.6 µM (inactive) | 29.9 µM (inactive) | 14.7 µM (inactive) | 21.1 µM (inactive) | 19.4 µM (inactive) | 22 µM (inactive) | 15.3 µM (inactive) | 18 µM | 19.7 µM (inactive) | 16.9 µM (inactive) | 20.4 µM (inactive) | 14.8 µM (inactive) | 18.5 µM (inactive) | 16.5 µM (inactive)
2 | CCOP(=O)(OCC)C(Cc1cn(S(=O)(=O)c2ccc(C)cc2)cn1)C(=O)O (stereo not given) | > 100 µM (inactive) | > 100 µM (inactive) | > 100 µM (inactive) | > 100 µM (inactive) | > 100 µM (inactive) | > 100 µM (inactive) | > 100 µM (inactive) | > 100 µM (inactive) | > 100 µM (inactive) | > 100 µM (inactive) | > 100 µM (inactive) | > 100 µM (inactive) | > 100 µM (inactive) | > 100 µM | > 100 µM (inactive) | > 100 µM (inactive) | > 100 µM (inactive) | > 100 µM (inactive) | > 100 µM (inactive) | > 100 µM (inactive)
3 | C=C1c2nc3ccccc3n2C=C(c2ccc(OC)cc2)N1c1ccc(OCCN2CCOCC2)cc1 | > 100 µM (inactive) | 66.8 µM (inactive) | > 86.1 µM (inactive) | 90.6 µM (inactive) | 28.4 µM (inactive) | 4.7 µM (inactive) | 41.7 µM (inactive) | 18.1 µM (inactive) | > 100 µM (inactive) | 1.91 µM (inactive) | 8.45 µM (inactive) | > 25.2 µM (inactive) | 9.73 µM (inactive) | 6.15 µM | > 100 µM (inactive) | 3.75 µM (inactive) | 6.03 µM (inactive) | 24.7 µM (inactive) | 42.2 µM (inactive) | 24.3 µM (inactive)
4 | CN(CC(N)=O)C(=O)N(CCCl)N=O [SARCNU] | > 100 µM (inactive) | > 100 µM (inactive) | > 100 µM (inactive) | > 100 µM (inactive) | > 100 µM (inactive) | > 100 µM (inactive) | > 76.7 µM (inactive) | > 100 µM (inactive) | > 100 µM (inactive) | > 100 µM (inactive) | > 100 µM (inactive) | > 100 µM (inactive) | > 100 µM (inactive) | > 100 µM | 67.9 µM (inactive) | > 100 µM (inactive) | > 100 µM (inactive) | > 100 µM (inactive) | > 100 µM (inactive) | > 100 µM (inactive)

Reference: ChEMBL document CHEMBL1201862, “PubChem BioAssay data set” (2004)
